PubChem BioAssay (NCI)
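Cultured in 96-well plates, cells were exposed to test compound for 48 hours across five concentrations. GI50: concentration for 50% inhibition of growth. TGI is the concentration that stops growth completely.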

Legend:
Assay in all cases: DTP human tumour cell line panel, 48 h
[1] = tested on: SK-OV-3 ovarian
[2] = tested on: MDA-MB-468 breast
[3] = tested on: SF-295 CNS
[4] = tested on: HOP-62 NSCLC
[5] = tested on: RXF 393 renal
[6] = tested on: NCI-H23 lung
[7] = tested on: HL-60(TB) leukemia
[8] = tested on: SW-620 colon
[9] = tested on: RPMI-8226 leukemia
[10] = tested on: MOLT-4 leukemia
[11] = tested on: NCI-H226 lung
[12] = tested on: EKVX NSCLC
[13] = tested on: HOP-92 NSCLC
[14] = tested on: CAKI-1 renal
[15] = tested on: HT29 colon
[16] = tested on: OVCAR-8 ovarian
[17] = tested on: HCC-2998 colon
[18] = tested on: UACC-62 melanoma
[19] = tested on: HCT-15 colon
[20] = tested on: T-47D breast
[21] = tested on: MDA-MB-435
[22] = tested on: K-562 leukemia
[23] = tested on: MDA-MB-231 breast
[24] = tested on: OVCAR-3 ovarian
[25] = tested on: SF-268 CNS
[26] = tested on: SNB-19 CNS
[27] = tested on: MCF7 breast
[28] = tested on: SR leukemia
[29] = tested on: LOX IMVI melanoma
[30] = tested on: NCI/ADR-RES ovarian
[31] = tested on: SK-MEL-28 melanoma
[32] = tested on: SF-539 CNS
[33] = tested on: NCI-H460 lung
[34] = tested on: HCT-116 colon
[35] = tested on: OVCAR-5 ovarian
[36] = tested on: M14 melanoma
[37] = tested on: IGROV1 ovarian
[38] = tested on: UO-31 renal
[39] = tested on: UACC-257 melanoma
[40] = tested on: KM12 colon
[41] = tested on: HS 578T breast
[42] = tested on: COLO 205 colon
[43] = tested on: NCI-H522 lung
[44] = tested on: PC-3 prostate
[45] = tested on: CCRF-CEM leukemia
[46] = tested on: 786-0 renal
[47] = tested on: BT-549 breast
[48] = tested on: SNB-75 CNS
[49] = tested on: SK-MEL-5 melanoma
[50] = tested on: SK-MEL-2 melanoma
[51] = tested on: A498 renal
[52] = tested on: OVCAR-4 ovarian
[53] = tested on: DU-145 prostate
[54] = tested on: ACHN renal
[55] = tested on: U251 CNS
[56] = tested on: A549 NSCLC
[57] = tested on: SN12C renal
[58] = tested on: MALME-3M melanoma
[59] = tested on: TK-10 renal

`CN1CCN(c2ccc(C(=O)/C=C/c3ccc(OC(F)F)cc3)cc2)CC1` showed a GI50 [1] of 13.9 µM, a TGI [1] of 27.6 µM and a GI50 [2] of 3.52 µM. The TGI [2] was 14.5 µM, the GI50 [3] was 12.3 µM and the TGI [3] was 24.7 µM. The GI50 [4] was 15.4 µM, the TGI [4] was 30.4 µM and the GI50 [5] was 4.34 µM. It also gave a TGI [5] of 17.4 µM, a GI50 [6] of 11.8 µM and a TGI [6] of 24.3 µM. For the same molecule, the GI50 [7] was 4.7 µM, the TGI [7] was 33.4 µM and the GI50 [8] was 4.98 µM. It also gave a TGI [8] of 18.5 µM, a GI50 [9] of 2.6 µM and a TGI [9] of 9.85 µM. It also gave a GI50 [10] of 11.6 µM, a TGI [10] of 54.9 µM and a GI50 [11] of 10.8 µM. The TGI [11] was 24.3 µM, the GI50 [12] was 13.1 µM and the TGI [12] was 25.8 µM. For the same molecule, the GI50 [13] was 6.21 µM, the TGI [13] was 20.9 µM and the GI50 [14] was 13.9 µM. For the same molecule, the TGI [14] was 27.2 µM, the GI50 [15] was 3.41 µM and the TGI [15] was 15.3 µM. The GI50 [16] was 14.2 µM, the TGI [16] was 27.8 µM and the GI50 [17] was 3.76 µM. The TGI [17] was 14 µM, the GI50 [18] was 14 µM and the TGI [18] was 27 µM. The GI50 [19] was 6.88 µM, the TGI [19] was 19.7 µM and the GI50 [20] was 15.5 µM. It also gave a TGI [20] of 38.4 µM, a GI50 [21] of 3 µM and a TGI [21] of 10.7 µM. The GI50 [22] was 2.8 µM, the TGI [22] was greater than 100 µM and the GI50 [23] was 13.5 µM. It also gave a TGI [23] of 26.3 µM, a GI50 [24] of 12.1 µM and a TGI [24] of 25.5 µM. It also gave a GI50 [25] of 18 µM, a TGI [25] of 41.3 µM and a GI50 [26] of 14.7 µM. For the same molecule, the TGI [26] was 27.9 µM, the GI50 [27] was 2.74 µM and the TGI [27] was 11 µM. For the same molecule, the GI50 [28] was 1.96 µM, the TGI [28] was greater than 100 µM and the GI50 [29] was 3.53 µM. For the same molecule, the TGI [29] was 13 µM, the GI50 [30] was 13.9 µM and the TGI [30] was 27.3 µM. The GI50 [31] was 15.3 µM, the TGI [31] was 28.6 µM and the GI50 [32] was 12.3 µM. For the same molecule, the TGI [32] was 24.7 µM, the GI50 [33] was 14.4 µM and the TGI [33] was 30.1 µM. For the same molecule, the GI50 [34] was 2.87 µM, the TGI [34] was greater than 100 µM and the GI50 [35] was 14.8 µM. It also gave a TGI [35] of 28.1 µM, a GI50 [36] of 12.3 µM and a TGI [36] of 38.6 µM. It also gave a GI50 [37] of 12.1 µM, a TGI [37] of 25.2 µM and a GI50 [38] of 11 µM. It also gave a TGI [38] of 23 µM, a GI50 [39] of 13.8 µM and a TGI [39] of 27.2 µM. The GI50 [40] was 5.2 µM, the TGI [40] was 22.1 µM and the GI50 [41] was 14.9 µM. The TGI [41] was 46.2 µM, the GI50 [42] was 14.2 µM and the TGI [42] was 30.9 µM. It also gave a GI50 [43] of 15.4 µM, a TGI [43] of 32.3 µM and a GI50 [44] of 10.3 µM. It also gave a TGI [44] of 26.5 µM, a GI50 [45] of 4.3 µM and a TGI [45] of 37.7 µM. It also gave a GI50 [46] of 15.3 µM, a TGI [46] of 39.6 µM and a GI50 [47] of 13 µM. The TGI [47] was 29 µM, the GI50 [48] was 4.85 µM and the TGI [48] was 20.3 µM. It also gave a GI50 [49] of 8.94 µM, a TGI [49] of 21.1 µM and a GI50 [50] of 16.6 µM. The TGI [50] was 31.9 µM, the GI50 [51] was 14.2 µM and the TGI [51] was 27.8 µM. It also gave a GI50 [52] of 14.4 µM, a TGI [52] of 33.8 µM and a GI50 [53] of 13.6 µM. For the same molecule, the TGI [53] was 26.7 µM, the GI50 [54] was 14.8 µM and the TGI [54] was 27.9 µM. It also gave a GI50 [55] of 9.79 µM, a TGI [55] of 27.5 µM and a GI50 [56] of 11.7 µM. For the same molecule, the TGI [56] was 25.8 µM, the GI50 [57] was 13.5 µM and the TGI [57] was 26.3 µM. For the same molecule, the GI50 [58] was 13.1 µM, the TGI [58] was 25.8 µM and the GI50 [59] was 14.8 µM. The TGI [59] was 29.6 µM.
